# Laboratory results from patent US20060252707A1, “Pharmaceutical composition for the treatment and/or the prevention of atherosclerosis from infectious origin” (UNIVERSITE DE LIEGE, priority 2003, published 2006).
# Columns and labels:
# Format in all cases: cell-based, human
# [1] = tested on: THP-1 cells conditioned with Chlamydia pneumoniae; experiment: Oxidant activity (ethylene production from KMB, gas liquid chromatography) of THP-1 cells conditioned with Chlamydia pneumoniae, then stimulated by PMA; conditions: for Ethylene: % of THP-1 + Chlamydia
# Method: This model has been described in details in Mouithys Mickalad et al. (Biochem Biophys Res Comm 2001, 287: 781-788). Treatment of the Cells with Chlamydia pneumoniae:
# The monocytes (in multiwell plates, 2×10^6 cells/well) are conditioned by a pre-incubation of 19 hours with elementary bodies of Chlamydia pneumoniae (at a dose equivalent to a mean endotoxin concentration of 3.3 pg). The elementary bodies are obtained by Chlamydia culture in MacCoy cells (American Type Culture Collection, Rockville, USA).
# (§1) After incubation with C. pneumoniae, the cells are washed and detached from the wells; they are put in sterile vials and an oxidable substrate, α-keto-methyl butyric acid (KMB) at 10^−3 M, is added. The vial is sealed and the following reagents are added by needle puncture. through the septum: 200 U horseradish peroxidase (HRP) and 10^−7 M phorbol myristate acetate (PMA).
# (§2) PMA is a monocyte activator, enhancing the superoxide anion production by these cells. Superoxide anion dismutates into hydrogen peroxide (H2O2), which is used by HRP to form more oxidant species, able to oxidize KMB, releasing ethylene. After 3 hours of incubation at 37° C, ethylene, which has accumulated in the gaseous phase of the sealed vial is measured by gas liquid chromatography, on a Porapak T column (TM) equipped with flame ionisation detector. These assays can be made with the prior addition of a reagent able to inhibit or to stimulate the monocytes, the reagent being added, either at pre-incubation (at the same time as the Chlamydia EB), or at the moment of PMA activation.
# [2] = tested on: THP-1 cells conditioned with Escherichia Coli endotoxin (LPS); experiment: Oxidant activity (ethylene production) of THP-1 cells conditioned with Escherichia Coli endotoxin (LPS), then stimulated by PMA; conditions: for Ethylene: FIG. 9 part 2, % of THP-1 + LPS, PMA 10^−7 M
# Method: FIG. 9 represents the effects of hydrocortisone (HCT) on the oxidant activity of THP-1 cells conditioned either with Chlamydia pneumoniae (part 1; n=13) or with Escherichia Coli endotoxin (LPS) (part 2), and then stimuled by PMA 10^−7 M. Ethylene is expressed in % of the value measured for THP-1 cells incubated with Chlamydia (column 2 for part 1), or incubated with LPS (column 1 for par 2).
# as §1, §2
# Two glucocorticoids were tested: hydrocortisone and methylprednisolone. […] On the contrary, HCT is an inhibitor on the oxidation rate when the cells are conditioned with endotoxins (LPS) of Escherichia coli (FIG. 9 part 2, columns 2, 3 and 4) (Ethylene values are expressed in % of the control cells=THP-1 cells stimulated by PMA 10^−7 M after pre-incubation with Chlamydia (part 1, column 2) or LPS ([…]
# [3] = tested on: nuclear transcription factor kappaB (NF-κB); experiment: Activation of NF-κB (binding to DNA) by electrophoretic mobility shift assay in THP-1 cells pre-incubated with Chlamydia; conditions: for NF-κB relative value (%): THP-1 + Chlamydia, % of THP-1 without preincubation with C pneumoniae (FIG. 7)
# Method: FIG. 7 represents the effects of pre-incubation with Chlamydia on the activity of the nuclear transcription factor kappaB (NF-kB) (column 2). NF-kB is expressed in % of column 1 (THP-1 cells without preincubation with C pneumoniae)
# The activation of NF-κB was measured by the technique of <<electrophoretic mobility shift assay>> (EMSA) (Schoonbroodt et al., 2000, J Immunol. 164: 4292-4300; Nys et al., 2003, Nitric Oxide 9: 33-43) (FIG. 7). The activation of NF-κB is expressed in % of control cells (cells which have not been pre-incubated with Chlamydia) (column 1). The incubation of monocytes with C. pneumoniae activates the NF-κB binding to DNA (FIG. 7, column 2).
# [4] = tested on: TNFα; experiment: TNFα production (ELISA, culture supernatant) by THP-1 cells pre-incubated with Chlamydia pneumoniae; conditions: 10^−9 M to 10^−5 M; THP-1 pre-incubated (19h) with Chlamydia
# Method: (§3) By using this model, one may verify that the monocyte incubation with C. pneumoniae during 19 hours, enhances the production of TNFα(FIG. 6, part 1) and IL-8 ([…]), as measured by immunological methods (ELISA type) in the culture supernatant.
# [5] = tested on: IL-8; experiment: IL-8 production (ELISA, culture supernatant) by THP-1 cells pre-incubated with Chlamydia pneumoniae; conditions: 10^−9 M to 10^−5 M; THP-1 pre-incubated (19h) with Chlamydia
# Method: as §3
# [6] = tested on: p22^phox; experiment: Gene expression (PCR) of NADPH-oxidase subunit p22phox in THP-1 cells incubated with Chlamydia; conditions: FIG. 16; 10^−4 to 10^−6 M
# Method: FIG. 16 represents the genetic expression of one of the subunits of NADPH-oxidase, the p22^phox, and the effects of glucocorticoids, hydrocortisone (HCT) and methylprednisolone (MPL) (data are expressed as relative values by comparison with a reference gene).
# By the PCR (<<polymerase chain reaction>>) method, it was observed that the incubation of monocytes with C. pneumoniae increased the expression of the genes (FIG. 8, column 2 compared to column 1) coding for interleukines 1β (IL-1β) (FIG. 8, part 1), 6 (IL-6) (FIG. 8, part 2) and 8 (IL-8) (FIG. 8, part 3), coding for inducible cyclo-oxygenase (COX-2) (FIG. 8, part 4) and coding for one of the subunits of NADPH-oxidase, the p22 protein (p22^phox) (FIG. 8, part 5) (results are presented as relative values by comparison with a reference gene).
# [7] = tested on: THP-1 cell line; experiment: Model of foam cell formation from THP-1 monocytes (Chlamydia pneumoniae, then LDL or liposomes, Oil Red O); conditions: LDL
# Method: A model of foam cell formation from monocytes (THP-1 cell line) was developed. The cells are incubated for 19 hours with Chlamydia pneumoniae. This incubation is followed by the addition of human LDL or liposomes, and another incubation period of 48 hours. At the end of this second period of incubation, the cells are fixed and stained with oil Red O (Sigma, Belgium) (Smirnova et al., 2004, Am J Physiol Heart Circ Physiol. March 11 (Epub ahead of print) to highlight the foam cells. When drugs are used in this model, they are added at the same time as the LDL or liposomes. LDL are prepared from human blood drawn on EDTA. They are isolated by sequential flotation centrifugation with increased concentrations of KBr. After their isolation, LDL are dialysed, sterilised by filtration and their purity is confirmed by electrophoresis. Liposomes are lipid vesicles prepared by extrusion with cholesterol esters and phospholipids, mimicking lipoproteins.
compound,measurement,setting,value
"C[C@]12CCC(=O)C=C1CC[C@@H]1[C@@H]2[C@@H](O)C[C@@]2(C)[C@H]1CC[C@]2(O)C(=O)CO [HCT, hydrocortisone]",Ethylene,"[1]; FIG. 9 part 1, 10^−4 M, PMA 10^−7 M",108%
same,Ethylene,"[1]; FIG. 9 part 1, 10^−5 M, PMA 10^−7 M",119%
same,Ethylene,"[1]; FIG. 9 part 1, 10^−6 M, PMA 10^−7 M",139%
same,Ethylene,"[1]; FIG. 19, drug alone 10^−4 M, pre-incubation with Chlamydia",84.0%
same,Ethylene,"[1]; FIG. 19, drug alone 10^−5 M, pre-incubation with Chlamydia",116.0%
same,Ethylene,"[1]; FIG. 20, drug alone 10^−4 M, pre-incubation with Chlamydia",98.0%
same,Ethylene,"[1]; FIG. 20, drug alone 10^−5 M, pre-incubation with Chlamydia",85.0%
same,Ethylene,"[1]; FIG. 21, drug alone 10^−4 M, pre-incubation with Chlamydia",104.0%
same,Ethylene,"[1]; FIG. 21, drug alone 10^−5 M, pre-incubation with Chlamydia",72.0%
same,Ethylene,"[1]; FIG. 22, drug alone 10^−4 M, pre-incubation with Chlamydia",118.0%
same,Ethylene,"[1]; FIG. 22, drug alone 10^−5 M, pre-incubation with Chlamydia",68.1%
same,effect on oxidant activity / oxidation rate,"[1]; drug added at cell conditioning with Chlamydia (pre-incubation 19 hours), then PMA 10^−7 M","either does not modify the oxidant capacity, or even increases the oxidation rate"
same,Ethylene,[2]; 10^−4 M,19%
same,Ethylene,[2]; 10^−5 M,50%
same,Ethylene,[2]; 10^−6 M,57%
same,effect on oxidation rate,"[2]; cells conditioned with endotoxins (LPS) of Escherichia coli, 10^−4 to 10^−6 M",inhibitor
same,NF-κB relative value (%),[3]; 10^−5 M,396%
same,NF-κB relative value (%),[3]; 10^−6 M,480%
same,effect on the activation of NF-κB,[3]; at 10^−5 and 10^−6 M,without significant effect
same,activity of NF-κB,[3]; at 10^−6 M,slightly stimulated
same,effect on production of TNFα,[4],dose-dependent inhibiting effect
same,effect on production of IL-8,[5],dose-dependent inhibiting effect
same,effect on gene expression of p22^phox,[6],inhibitors
same,effect on transformation into foam cells,[7]; 10^−5 M,favouring effect
same,effect on transformation into foam cells,[7]; at 10^−5 and 10^−6 M,does not inhibit the transformation into foam cells
